# Experimental data from patent US20060217443A1, “Method for preventing and/or treating vaginal and vulval infections” (Kimberly-Clark Worldwide, Inc., priority 2005, published 2006).
# Like-named read-outs stand apart in the source and are kept apart here.
# How the values were obtained:
# Trichomonas vaginalis = test: Viable Trichomonas vaginalis cell count under a microscope; assay type: cell-based; conditions: for Inhibitory effect on Trichomonas vaginalis cell counts compared to control: gallic acid 0.11 percent
# Procedure: A sample of Trichomonas vaginalis, the parasite found in trichomonas vaginitis, was obtained from the American Type Culture Collection (ATCC), catalog number 30001. The culture medium was LYI-S-2 medium (ATCC medium 2154).
# A sterile LYI-S-2 medium was prepared according to the manufacturer's instructions, and the pH of this medium was adjusted to pH 6.0 using 1 N HCl. Gallic acid monohydrate (SIGMA-398225 from Signa Aldrich, USA) was dissolved in the LYI-S-2 medium. […] 0.9 milliliter of the gallic acid/LYI-S-2 solution or culture medium only (as control) was added into different culture tubes.
# 0.1 milliliter of Trichomonas vaginalis culture suspension, at a concentration of 1×10^6/milliliter, was added to each of the culture tubes, which were then incubated at 35 degrees Celsius on a 15 degree horizontal slant.
# The viable Trichomonas vaginalis cells in each tube were counted under a microscope after 24 hours.
# This procedure was repeated twice.
# Essentially the same procedure was performed as described in Example 1, but this time differing concentrations of gallic acid were tested on samples of Trichomonas vaginalis. The gallic acid concentrations that were tested were: 0.11 percent, 0.66 percent and 1.1 percent. More samples in each group were included (n=4), and the effects of the gallic acid over a longer time period were also observed, i.e. after 24 and 48 hours.
# Candida albicans [1] = test: Zone-of-inhibition test, Candida albicans; assay type: cell-based
# Procedure: (§1) A sample of Candida albicans, the yeast found in candidiasis, was also obtained from the American Type Culture Collection (ATCC), catalog number 10231, and was cultured in YM agar (Difco 0712) and YM broth (Difco 0711). A microorganism culture of 10^5 cfu (colony forming units)/milliliter in a 1× phosphate buffered saline (PBS) solution (diluted from 10× PBS LIQUID CONCENTRATE from VWR Cat. No. EM-6507] was prepared for each of Candida albicans and Lactobacillus acidophilus. One milliliter of each solution was plated on proper agar plates, depending on which microorganism was being tested. The agar plates were incubated at 35 degrees Celsius for four hours. Three 4 millimeter diameter wells were then punched into each agar plate. A test sample of 10 mg/ml gallic acid in sterilized 2-N-morpholino ethane sulfonic (MES, pH=4.7) buffer (0.1 M 2-[morpholino]-ethanesulfonic acid, 0.9 percent NaCl, pH 4.7, prepared from BupHTM MES Buffer Saline Pack from Cat. No. 28390, Pierce Biotechnology, Inc., Rockford, Ill.) was added to one well of each plate. […] The plates were incubated overnight at 35 degrees Celsius. The presence of a zone of microorganism inhibition was measured the following day for Candida albicans and Lactobacillus acidophilus activity, respectively.
# [2] = test system: Lactobacillus acidophilus; test: Zone-of-inhibition test, Lactobacillus acidophilus; assay type: cell-based
# Procedure: as §1, with “Lactobacillus acidophilus, a desirable bacterium in” for “Candida albicans,”, “vaginal ecosystem,” for “yeast found in candidiasis,”, “4354,” for “10231,”, “ATCC medium 416.” for “YM agar (Difco 0712) and YM broth (Difco 0711).”
# Candida albicans [3] = test: Inhibition test in solution by measuring optical density, Candida albicans; assay type: cell-based; conditions: gallic acid 5 milligram/milliliter, 24 hours, FIG. 3
# Procedure: A sample of Candida albicans, the yeast found in candidiasis, was also obtained from the American Type Culture Collection (ATCC), catalog number 10231, and was cultured in YM agar (Difco 0712) and YM broth (Difco 0711). […] Control and gallic acid solutions (0.9 milliliters) were filtered and added into separate culture tubes, and to these were added 0.1 milliliter of either the Candida albicans or Lactobacillus acidophilus suspension at a concentration of around 10^6 cfu/milliliter. The culture tubes were then incubated overnight at 37 degrees Celsius, whereafter the optical density was measured at 2, 4, 6 and 24 hours at 590 nanometers, by pippeting 100 microliters of the control or sample solutions into 96-well microplates, and then using a Molecular Devices of Sunnyvale, Calif. ThermoMax Microplate Reader to obtain the optical density readings at 590 nm wavelengths.
# [4] = test system: Lactobacillus acidophilus; test: Inhibition test in solution by measuring optical density, Lactobacillus acidophilus; assay type: cell-based; conditions: gallic acid 5 milligram/milliliter, 24 hours, FIG. 4
# Procedure: A sample of Lactobacillus acidophilus, a desirable bacterium in the vaginal ecosystem, was also obtained from the American Type Culture Collection (ATCC), catalog number 4354, and was cultured in ATCC medium 416. […] Control and gallic acid solutions (0.9 milliliters) were filtered and added into separate culture tubes, and to these were added 0.1 milliliter of either the Candida albicans or Lactobacillus acidophilus suspension at a concentration of around 10^6 cfu/milliliter. The culture tubes were then incubated overnight at 37 degrees Celsius, whereafter the optical density was measured at 2, 4, 6 and 24 hours at 590 nanometers, by pippeting 100 microliters of the control or sample solutions into 96-well microplates, and then using a Molecular Devices of Sunnyvale, Calif. ThermoMax Microplate Reader to obtain the optical density readings at 590 nm wavelengths.
# Gardnerella vaginalis = test: Inhibition test in solution by plate count, Gardnerella vaginalis; assay type: cell-based; conditions: 7.5 mg/ml gallic acid
# Procedure: A sample of Gardnerella vaginalis, the pathogenic bacterium found in bacterial vaginosis, was obtained from the American Type Culture Collection (ATCC), catalog number 14018. The culture medium was ATCC medium 70 and Casman's medium (BD 229010) with 5 percent rabbit blood.
# A test compound of Gardnerella vaginalis was prepared in culture media to form a suspension. Control and gallic acid solutions (0.9 milliliters; 7.5 milligram gallic acid/milliliter) were filtered and added into separate culture tubes, and to these were added 0.1 milliliter of the Gardnerella vaginalis suspension at a concentration of around 10^6 cfu/milliliter. The culture tubes were incubated at 37 degrees Celsius for 24 hours.
# The samples in the culture tubes were then diluted at 1, 10 and 100 times, and 100 microliters of each dilution was plated onto agar plates with WASP (Whitely Automatic Spiral Plate) spiral plating equipment from Don Whitely Scientific Limited, USA. The plates were incubated overnight at 35 degrees Celsius, and the colonies were counted on each plate by either ProtoCol® from Synbiosis, Frederick, Md., USA Whitely Scientific Limited, USA or by hand count.
# [5] = Highest concentration obtainable in water; assay type: physicochemical; conditions: gallic acid monohydrate, only partially water soluble
# [6] = test system: Lactobacillus acidophilus; conditions: previously shown; cited from earlier work
# [7] = 10 milligram/ml gallic acid or 0.5 percent Benzyl Quats in well, MES buffer pH 4.7, overnight 35 degrees Celsius, n = 2
# [8] = zone-of-inhibition test, gallic acid 10 mg/ml, Benzyl Quats 0.5 percent
smiles,measurement,setting,value
"O=C(O)c1cc(O)c(O)c(O)c1 [gallic acid, 3,4,5-trihydroxybenzoic acid]",Inhibitory effect on Trichomonas vaginalis cell counts compared to control,"Trichomonas vaginalis; 24 hours, n=4, FIG. 1",50%
same,Inhibitory effect on Trichomonas vaginalis cell counts compared to control,"Trichomonas vaginalis; 48 hours, n=4, FIG. 2",70%
same,Live Trichomonas vaginalis cells (in words),"Trichomonas vaginalis; gallic acid 0.66 percent, 24 hours, n=4, Example 2",No live Trichomonas vaginalis cells were observed
same,Live Trichomonas vaginalis cells (in words),"Trichomonas vaginalis; gallic acid 0.66 percent, 48 hours, n=4, Example 2",No live Trichomonas vaginalis cells were observed
same,Live Trichomonas vaginalis cells (in words),"Trichomonas vaginalis; gallic acid 1.1 percent, 24 hours, Example 1",no live Trichomonas vaginalis cells were observed
same,"Number of Trichomonas cells, Repeat 2","Trichomonas vaginalis; gallic acid 1.1 percent, 24 hours, Example 1, control 1 000 000",0
same,"Number of Trichomonas cells, Repeat 1","Trichomonas vaginalis; gallic acid 1.1 percent, 24 hours, Example 1, control 900 000",0
same,Live Trichomonas vaginalis cells (in words),"Trichomonas vaginalis; gallic acid 1.1 percent, 24 hours, n=4, Example 2",No live Trichomonas vaginalis cells were observed
same,Live Trichomonas vaginalis cells (in words),"Trichomonas vaginalis; gallic acid 1.1 percent, 48 hours, n=4, Example 2",No live Trichomonas vaginalis cells were observed
same,"Zone of inhibition, Candida albicans",Candida albicans [1]; [7],5 millimeter
same,Effect on growth of Candida albicans (in words),Candida albicans [1]; [8],selectively inhibited Candida albicans
same,"Zone of inhibition, Lactobacillus acidophilus",[2]; [7],0 millimeter
same,Effect on growth of Lactobacillus acidophilus (in words),[2]; [8],did not affect the growth of Lactobacillus acidophilus
same,Growth of Candida albicans by optical density at 590 nm (in words),Candida albicans [3],significantly inhibit the growth of Candida albicans
same,Growth of Lactobacillus acidophilus by optical density at 590 nm (in words),[4],did not show any significant inhibition
same,"Gardnerella vaginalis plate count, Average","Gardnerella vaginalis; 24 hours treatment, n = 4, negative control 1.81E+08, p < 0.05",*3.43E+04
same,inhibition at 7500 µg/mL,"Gardnerella vaginalis; Gardnerella vaginalis, 24 hours of treatment, read-out: Inhibition on the growth of Gardnerella vaginalis compared to control group",> 100%
same,Highest concentration of gallic acid that could be obtained in water,[5],1.1 percent (g/100 milliliter)
same,Effect on growth of Lactobacillus acidophilus (in words),[6],does not affect the growth of Lactobacillus acidophilus
